Legend:
[1] = test system: cellular vesicles of HEK293 cells; test: Fluorescent staining of cellular vesicles in HEK293 cells; format: cell-based, human; conditions: 0.3 μM, excitation 470 nm
Protocol: Compound 1 was used to fluorescently stain cellular vesicles of HEK293 cells. The procedure is illustrated below. • (1) HEK293A cells (ThermoFisher) were plated in a glass bottom dish and cultured for 24 hours. […] Note that the measurement was performed with excitation at 470 nm.

[2] = test system: cellular vesicles of mouse malignant melanoma cells B16F10; test: Fluorescent staining of intracellular vesicles with Compound 1 and anti-CD63 antibody; format: cell-based
[3] = test system: cellular vesicles / autophagosomes of B16F10 cells; test: Detection of autophagosomes using a PIKfyve inhibitor; format: cell-based, mouse; conditions: 3 μM
Protocol: An endosome-derived intracellular vesicle formation inhibitor (PIKfyve inhibitor) was used to detect autophagosomes. The procedure is illustrated below. • (1) 3×10^4 of B16F10 cells were plated in a glass bottom dish and cultured for 24 hours. • (2) Compound 1 was added to have the final concentration of 3 μM. • (3) Measurement was performed by using a fluorescence microscope. Note that the measurement was performed with excitation at 470 nm. • (4) PIKfyve inhibitor (HY-13228 (MedChemExpress)) was then added to the culture medium to have the final concentration of 10 μM, which was cultured for 1 hour. • (5) Measurement was performed by using the fluorescence microscope. • (6) PIKfyve inhibitor-containing culture medium was aspirated off, and washing operation was performed twice with a new culture medium, which was cultured with another new culture medium for 3 hours. • (7) Measurement was performed by using the fluorescence microscope.

[4] = test system: cellular vesicles of B16F10 cells; test: Specificity 3: staining in the presence of foreign substances (mouse dung); format: cell-based; conditions: B16F10 cells mixed with mouse dung suspension; Compound 1 0.3 μM; CellMask reagent 1 μL
Protocol: Intracellular vesicles were fluorescently stained by Compound 1 in the presence of foreign substances. The procedure is illustrated below. • (1) 100 mg of mouse dung was collected, and the collected dung was suspended in 10-fold volume (1 mL) of phosphate buffer. • (2) B16F10 cells were detached using trypsin EDTA (NACALAI TESQUE) and collected, and 1×10^4 cells were suspended in 100 μL of phosphate buffer and mixed with 10 μL of the mouse dung suspension of (1) . • (3) The suspension of the cells and the […] was spread on a glass bottom dish, and 300 μM of Compound 1 was added to have the final concentration of 0.3 μM. • (4) Measurement was performed by using the fluorescence microscope. Note that the measurement was performed with excitation at 470 nm.
Comparative example 2 is the same as Example 19 except that, instead of Compound 1, 1 μL of CellMask reagent (C10045 (ThermoFisher)) was added to the suspension of the cells and the dung. Note that the measurement was performed with excitation at 540 nm.

milk exosomes [5] = test: Fluorescent staining of exosomes; conditions: 0.3 μM in phosphate buffer
milk exosomes [6] = test: Calibration curve in exosome detection; conditions: 0.3 μM, milk exosomes 0.1 to 1 ng per well, fetal bovine serum/phosphate buffer
[7] = test system: cellular vesicles of B16F10 cells; test: Specificity 2: comparison with another cellular vesicle staining agent; format: cell-based, mouse; conditions: Compound 1 3 μM without washing, ExoSparkler Mem Dye-Red 1 μL/mL with washing
Protocol: Compound 1 was used for fluorescent staining of intracellular vesicles. The procedure is illustrated below. • (1) 3×10^4 of B16F10 cells were plated in a glass bottom dish and cultured for 24 hours. • (2) Compound 1 was added to the culture medium to have the final concentration of 3 μM. • (3) Measurement was performed by using the fluorescence microscope. Note that the measurement was performed with excitation at 470 nm.
Comparative example 1 is the same as Example 18 except that, instead of Compound 1, 1 μL/mL of ExoSparkler Mem Dye-Red (340-09671 (Dojindo Laboratories)) was added to the culture medium, the culture medium was aspirated off after the addition of ExoSparkler Mem Dye-Red, and a new culture medium was added for washing. Note that the measurement was performed with excitation at 540 nm.

[8] = test system: cellular vesicles of living B16F10 cells; test: Specificity 1: staining of cellular vesicles of living versus fixed (dead) cells; format: cell-based, mouse; conditions: B16F10, 0.3 μM, mixed fixed (dead) and living cells
[9] = test system: labeled milk exosomes in HEK293A cells; test: Incorporation of labeled exosomes into cells; format: cell-based, human
[10] = test system: cellular vesicles of keratinocyte cells (PSVK1); test: Fluorescent staining of cellular vesicles in keratinocyte cells (PSVK1); format: cell-based, human; conditions: 0.3 μM, excitation 470 nm
Protocol: Compound 1 was used to fluorescently stain cellular vesicles of keratinocyte cells (PSVK1). The procedure is illustrated below. • (1) PSVK1 cells (obtained from National Institute of Biomedical Innovation, Health and Nutrition, Cell Bank) were plated in a glass bottom dish and cultured for 24 hours. […] Note that the measurement was performed with excitation at 470 nm.

[11] = test system: incorporation of labeled melanosomes into keratinocyte cells; test: Inhibition of incorporation of labeled melanosomes into cells; format: cell-based; conditions: inhibitor final concentration 10 μM, 12 hours, melanosomes labeled with Compound 1, excitation 488 nm
Protocol: Incorporation of melanosomes into cells was measured in the presence of a melanosome uptake inhibitor. […] As the melanosome uptake inhibitor, 6-shogaol (192-16161 (Fujifilm Wako)) was used. • (13) After 12 hours, the cells were washed twice with 100 μL of phosphate buffer. • (14) A plate reader (GroMax Multi (Promega)) was used to measure the labeled melanosomes. […]
Comparative Example 4 is the same as Example 29 except that the measurement with the plate reader was performed for absorbance at 450 nm.

Compound | fluorescent staining of cellular vesicle of HEK293 cell [1] | overlap of compound fluorescence with fluorescence of the antibody conjugated with CD63 ([2]; 0.3 μM, fixed, anti-CD63 antibody excited at 540 nm) | fluorescent staining of cellular vesicles ([2]; final concentration 0.3 μM, 5 minutes, excitation 470 nm) | fluorescent staining of PIKfyve dependent cellular vesicles ([3]; before/after PIKfyve inhibitor 10 μM 1 hour) | fluorescent staining of autophagosome membrane ([3]; cultured 3 hours after removal of PIKfyve inhibitor) | specificity of fluorescent staining in the presence of foreign substances [4] | fluorescence with milk exosomes added (milk exosomes [5]; 10 ng milk exosomes, excitation 302 nm) | fluorescence without milk exosomes (Comparative example 3) (milk exosomes [5]; no milk exosome added) | fluorescence intensity versus amount of added milk exosomes (milk exosomes [6]) | specificity of fluorescent staining to cellular vesicles [7] | staining of cellular vesicles of living cells versus dead cells [8] | incorporation of exosomes labeled with the compound into cells ([9]; HEK293A cells, 12 hours after addition) | conjugation with exosomes (overlap with ExoSparkler Mem Dye-Red fluorescence) ([9]; milk exosomes stained 5 minutes with 0.3 μM) | fluorescent staining of cellular vesicle of PSVK1 cell [10] | incorporation of labeled melanosomes into keratinocyte cells [11]
CN(C)c1ccc(CCCN(C)C2CCc3cc(OCCNc4ccc([N+](=O)[O-])c5nonc45)ccc32)cc1 (stereo not drawn) [Compound 1] | can fluorescently stain | overlap each other | can fluorescently stain cellular vesicles | can also fluorescently stain the PIKfyve dependent cellular vesicles | the autophagosome membrane enclosing the melanosome was fluorescently stained | can specifically fluorescently stain cellular vesicles | conjugates with exosomes that are cellular vesicles and emits fluorescence | no fluorescence was emitted | the fluorescence intensity increased depending on the amount of externally added milk exosomes | high specificity to cellular vesicles | fluorescently stains cellular vesicles of living cells | are incorporated into cells | specifically conjugates with the exosomes | can fluorescently stain | 
CCCCC/C=C/C(=O)CCc1ccc(O)c(OC)c1 [melanosome uptake inhibitor, 6-shogaol] |  |  |  |  |  |  |  |  |  |  |  |  |  |  | incorporation of the labeled melanosomes into keratinocyte cells is inhibited

Source: patent publication US20240125678A1, “COMPOUND, CELLULAR VESICLE STAIN, AND METHOD FOR FLUORESCENT STAINING OF CELLULAR VESICLES” (National University Corporation Tokai National Higher …, priority 2021, published 2024)
